ChEMBL document CHEMBL4507319 (2021)

Legend:
[1] = biological target: Leukocyte tyrosine kinase receptor (Homo sapiens) (UniProt P29376); settings: Compound concentration 1000.0 nM
[2] = biological target: T1, Ephrin type-B receptor 2 (Homo sapiens) (UniProt P29323); settings: Compound concentration 1000.0 nM
T1 sequence (whole entry): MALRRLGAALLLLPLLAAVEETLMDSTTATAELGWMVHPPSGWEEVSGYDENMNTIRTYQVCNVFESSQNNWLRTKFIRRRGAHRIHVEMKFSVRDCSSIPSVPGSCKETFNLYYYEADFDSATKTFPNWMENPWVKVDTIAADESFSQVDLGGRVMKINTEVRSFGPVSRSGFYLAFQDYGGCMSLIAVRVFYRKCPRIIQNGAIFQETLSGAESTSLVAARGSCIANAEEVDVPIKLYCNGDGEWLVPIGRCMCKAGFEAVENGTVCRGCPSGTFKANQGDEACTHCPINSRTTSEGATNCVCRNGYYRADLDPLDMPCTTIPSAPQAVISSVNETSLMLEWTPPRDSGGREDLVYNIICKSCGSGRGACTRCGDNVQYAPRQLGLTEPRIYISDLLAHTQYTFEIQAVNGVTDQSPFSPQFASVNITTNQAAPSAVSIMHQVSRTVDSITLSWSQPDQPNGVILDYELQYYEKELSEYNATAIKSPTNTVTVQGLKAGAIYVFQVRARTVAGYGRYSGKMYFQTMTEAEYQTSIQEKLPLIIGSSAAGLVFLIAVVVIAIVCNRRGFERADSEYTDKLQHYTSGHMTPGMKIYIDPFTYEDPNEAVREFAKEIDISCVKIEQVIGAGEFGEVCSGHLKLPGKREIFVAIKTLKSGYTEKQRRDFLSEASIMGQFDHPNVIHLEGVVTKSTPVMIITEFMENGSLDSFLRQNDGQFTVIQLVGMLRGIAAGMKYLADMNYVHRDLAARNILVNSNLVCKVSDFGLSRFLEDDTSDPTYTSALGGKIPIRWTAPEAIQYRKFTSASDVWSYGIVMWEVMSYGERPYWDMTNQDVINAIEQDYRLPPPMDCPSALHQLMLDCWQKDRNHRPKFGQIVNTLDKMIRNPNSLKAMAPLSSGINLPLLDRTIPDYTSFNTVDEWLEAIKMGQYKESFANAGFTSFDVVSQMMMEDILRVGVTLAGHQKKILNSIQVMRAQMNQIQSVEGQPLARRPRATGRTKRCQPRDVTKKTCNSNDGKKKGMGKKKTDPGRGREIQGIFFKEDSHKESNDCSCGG

[3] = biological target: SRSF protein kinase 1 (Homo sapiens) (UniProt Q96SB4); settings: Compound concentration 1000.0 nM
Sequence of SRSF protein kinase 1 (Homo sapiens) (Q96SB4 whole entry): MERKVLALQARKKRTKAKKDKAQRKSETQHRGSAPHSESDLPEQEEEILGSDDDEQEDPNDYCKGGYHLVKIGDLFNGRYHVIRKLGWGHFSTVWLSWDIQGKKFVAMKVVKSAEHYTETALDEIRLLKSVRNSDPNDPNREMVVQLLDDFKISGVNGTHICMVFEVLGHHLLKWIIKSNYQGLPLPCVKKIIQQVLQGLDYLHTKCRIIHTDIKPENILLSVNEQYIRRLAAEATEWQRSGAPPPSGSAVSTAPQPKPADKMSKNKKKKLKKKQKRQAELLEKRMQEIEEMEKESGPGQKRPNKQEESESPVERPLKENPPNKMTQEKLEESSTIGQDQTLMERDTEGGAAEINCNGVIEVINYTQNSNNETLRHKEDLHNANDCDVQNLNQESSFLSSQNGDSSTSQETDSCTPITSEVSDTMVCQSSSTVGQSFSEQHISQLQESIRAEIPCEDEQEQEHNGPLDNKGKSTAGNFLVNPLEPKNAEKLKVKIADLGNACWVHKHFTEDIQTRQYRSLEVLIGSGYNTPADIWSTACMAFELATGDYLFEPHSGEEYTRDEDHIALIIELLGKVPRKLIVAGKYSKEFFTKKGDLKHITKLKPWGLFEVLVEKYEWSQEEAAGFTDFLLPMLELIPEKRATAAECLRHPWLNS

[4] = biological target: 5-hydroxytryptamine receptor 7 (Homo sapiens) (UniProt P34969); settings: Compound concentration 10.0 uM
Sequence of 5-hydroxytryptamine receptor 7 (Homo sapiens) (P34969 whole entry): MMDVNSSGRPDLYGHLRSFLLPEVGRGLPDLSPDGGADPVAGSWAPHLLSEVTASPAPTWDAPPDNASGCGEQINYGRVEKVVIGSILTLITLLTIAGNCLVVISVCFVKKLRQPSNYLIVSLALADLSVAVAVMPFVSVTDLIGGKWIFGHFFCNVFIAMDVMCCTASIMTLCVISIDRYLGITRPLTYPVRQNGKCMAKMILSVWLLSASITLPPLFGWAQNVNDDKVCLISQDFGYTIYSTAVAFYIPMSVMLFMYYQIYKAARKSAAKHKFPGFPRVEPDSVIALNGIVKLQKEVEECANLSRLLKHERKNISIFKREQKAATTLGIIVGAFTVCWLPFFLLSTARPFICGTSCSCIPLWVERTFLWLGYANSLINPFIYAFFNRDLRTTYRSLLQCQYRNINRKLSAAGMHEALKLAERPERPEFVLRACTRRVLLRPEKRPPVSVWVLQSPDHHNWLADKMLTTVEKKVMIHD

[5] = biological target: Mitogen-activated protein kinase kinase kinase kinase 2 (Homo sapiens) (UniProt Q12851); settings: Compound concentration 1000.0 nM
Sequence of Mitogen-activated protein kinase kinase kinase kinase 2 (Homo sapiens) (Q12851 whole entry): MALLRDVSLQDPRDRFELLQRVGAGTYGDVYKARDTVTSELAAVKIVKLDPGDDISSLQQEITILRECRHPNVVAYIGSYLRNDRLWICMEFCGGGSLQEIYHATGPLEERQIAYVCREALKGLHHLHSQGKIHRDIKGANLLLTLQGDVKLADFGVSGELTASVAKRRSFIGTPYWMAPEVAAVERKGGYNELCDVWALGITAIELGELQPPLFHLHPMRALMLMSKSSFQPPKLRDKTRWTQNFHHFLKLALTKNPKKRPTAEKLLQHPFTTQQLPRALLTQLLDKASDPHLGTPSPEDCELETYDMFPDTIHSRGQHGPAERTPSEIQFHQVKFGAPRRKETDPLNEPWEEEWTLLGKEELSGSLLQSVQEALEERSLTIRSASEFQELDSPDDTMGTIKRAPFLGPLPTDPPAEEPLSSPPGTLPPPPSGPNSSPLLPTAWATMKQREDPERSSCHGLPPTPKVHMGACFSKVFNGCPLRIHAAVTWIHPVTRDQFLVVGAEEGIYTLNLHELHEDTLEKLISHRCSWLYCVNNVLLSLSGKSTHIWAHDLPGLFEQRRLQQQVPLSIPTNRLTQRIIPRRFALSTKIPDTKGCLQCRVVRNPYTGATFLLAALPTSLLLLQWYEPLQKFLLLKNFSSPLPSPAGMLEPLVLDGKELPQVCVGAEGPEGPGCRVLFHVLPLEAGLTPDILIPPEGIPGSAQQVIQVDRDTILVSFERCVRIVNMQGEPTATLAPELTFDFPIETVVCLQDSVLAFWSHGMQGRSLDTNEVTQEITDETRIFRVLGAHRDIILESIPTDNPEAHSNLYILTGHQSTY

[6] = biological target: Serine/threonine-protein kinase 24 (Homo sapiens, UniProt Q9Y6E0); settings: Compound concentration 1000.0 nM
[7] = biological target: Mitogen-activated protein kinase 3 (Homo sapiens) (UniProt P27361); settings: Compound concentration 1000.0 nM
[8] = test system: Tyrosine-protein kinase ABL1 (Homo sapiens), P00519 [F317I]; settings: Compound concentration 1000.0 nM
Sequence of Tyrosine-protein kinase ABL1 (Homo sapiens), P00519 [F317I] (P00519 whole entry F317I): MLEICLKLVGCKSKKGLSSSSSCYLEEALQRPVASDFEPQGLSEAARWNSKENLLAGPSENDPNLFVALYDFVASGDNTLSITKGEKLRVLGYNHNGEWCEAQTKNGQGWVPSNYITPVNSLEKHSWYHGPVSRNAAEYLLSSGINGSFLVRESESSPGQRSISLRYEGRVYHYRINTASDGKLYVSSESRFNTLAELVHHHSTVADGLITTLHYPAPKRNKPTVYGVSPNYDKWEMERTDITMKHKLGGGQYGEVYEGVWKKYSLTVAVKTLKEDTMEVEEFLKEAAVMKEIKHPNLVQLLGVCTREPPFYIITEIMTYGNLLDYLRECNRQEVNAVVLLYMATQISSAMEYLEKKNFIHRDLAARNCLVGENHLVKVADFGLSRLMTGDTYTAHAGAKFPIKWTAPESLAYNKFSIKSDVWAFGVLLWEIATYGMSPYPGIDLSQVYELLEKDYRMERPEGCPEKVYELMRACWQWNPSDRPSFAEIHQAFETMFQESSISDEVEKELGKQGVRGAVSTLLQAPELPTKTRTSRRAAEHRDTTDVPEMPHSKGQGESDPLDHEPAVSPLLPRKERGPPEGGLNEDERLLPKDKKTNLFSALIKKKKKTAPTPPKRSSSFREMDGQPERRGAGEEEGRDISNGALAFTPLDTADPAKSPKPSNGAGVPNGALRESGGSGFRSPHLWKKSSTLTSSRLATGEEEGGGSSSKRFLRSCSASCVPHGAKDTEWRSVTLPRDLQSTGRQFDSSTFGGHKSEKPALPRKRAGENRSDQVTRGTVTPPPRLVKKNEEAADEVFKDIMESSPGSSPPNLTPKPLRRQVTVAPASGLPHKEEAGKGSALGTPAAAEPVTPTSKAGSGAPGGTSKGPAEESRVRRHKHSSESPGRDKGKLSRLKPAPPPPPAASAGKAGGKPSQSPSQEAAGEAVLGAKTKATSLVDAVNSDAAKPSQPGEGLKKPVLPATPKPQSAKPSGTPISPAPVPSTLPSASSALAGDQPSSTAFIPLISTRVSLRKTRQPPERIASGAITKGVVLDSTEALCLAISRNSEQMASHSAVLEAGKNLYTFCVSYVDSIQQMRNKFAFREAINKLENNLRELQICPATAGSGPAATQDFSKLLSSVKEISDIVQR

[9] = biological target: Phosphatidylinositol 3-kinase catalytic subunit type 3 (Homo sapiens) (UniProt Q8NEB9); settings: Compound concentration 1000.0 nM
[10] = biological target: T2, Inhibitor of nuclear factor kappa-B kinase subunit beta (Homo sapiens) (UniProt O14920); settings: Compound concentration 1000.0 nM
T2 sequence (whole entry): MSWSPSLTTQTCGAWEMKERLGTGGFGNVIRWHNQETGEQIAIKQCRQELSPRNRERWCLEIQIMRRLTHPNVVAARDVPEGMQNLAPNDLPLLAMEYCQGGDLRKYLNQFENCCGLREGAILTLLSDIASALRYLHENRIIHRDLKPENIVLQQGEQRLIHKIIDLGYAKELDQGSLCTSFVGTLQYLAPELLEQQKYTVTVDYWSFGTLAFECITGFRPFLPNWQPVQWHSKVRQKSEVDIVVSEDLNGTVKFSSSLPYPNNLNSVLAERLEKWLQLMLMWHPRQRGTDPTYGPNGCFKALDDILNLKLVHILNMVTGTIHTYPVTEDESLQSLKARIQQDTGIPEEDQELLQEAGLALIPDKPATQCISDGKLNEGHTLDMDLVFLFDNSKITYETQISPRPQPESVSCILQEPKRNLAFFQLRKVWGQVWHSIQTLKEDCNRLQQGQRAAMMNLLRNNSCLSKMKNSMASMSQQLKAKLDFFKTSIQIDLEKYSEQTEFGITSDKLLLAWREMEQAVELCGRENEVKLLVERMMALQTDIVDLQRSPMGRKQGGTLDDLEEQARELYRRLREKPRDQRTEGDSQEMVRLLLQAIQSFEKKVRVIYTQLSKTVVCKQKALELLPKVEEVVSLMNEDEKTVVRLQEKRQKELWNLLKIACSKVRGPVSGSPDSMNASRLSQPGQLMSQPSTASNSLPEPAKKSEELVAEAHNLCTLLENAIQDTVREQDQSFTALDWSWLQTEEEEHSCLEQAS

[11] = test system: Epidermal growth factor receptor (Homo sapiens), P00533 [L861Q]; settings: Compound concentration 1000.0 nM
[12] = biological target: 5-hydroxytryptamine receptor 6 (Homo sapiens) (UniProt P50406); settings: Compound concentration 10.0 uM
Sequence of 5-hydroxytryptamine receptor 6 (Homo sapiens) (P50406 whole entry): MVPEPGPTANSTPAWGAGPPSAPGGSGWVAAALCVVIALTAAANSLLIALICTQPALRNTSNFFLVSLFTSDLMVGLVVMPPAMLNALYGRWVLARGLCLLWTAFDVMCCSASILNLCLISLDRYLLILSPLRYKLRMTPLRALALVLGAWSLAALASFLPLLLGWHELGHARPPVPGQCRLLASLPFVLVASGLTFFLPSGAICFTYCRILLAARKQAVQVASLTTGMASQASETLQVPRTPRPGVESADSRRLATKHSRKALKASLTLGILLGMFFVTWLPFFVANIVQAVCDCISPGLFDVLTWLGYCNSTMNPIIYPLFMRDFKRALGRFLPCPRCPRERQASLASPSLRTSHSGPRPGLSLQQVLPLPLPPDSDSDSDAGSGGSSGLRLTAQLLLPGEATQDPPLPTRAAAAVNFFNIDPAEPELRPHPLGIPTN

[13] = biological target: RAF proto-oncogene serine/threonine-protein kinase (Homo sapiens) (UniProt P04049); settings: Compound concentration 1000.0 nM
Sequence of RAF proto-oncogene serine/threonine-protein kinase (Homo sapiens) (P04049 whole entry): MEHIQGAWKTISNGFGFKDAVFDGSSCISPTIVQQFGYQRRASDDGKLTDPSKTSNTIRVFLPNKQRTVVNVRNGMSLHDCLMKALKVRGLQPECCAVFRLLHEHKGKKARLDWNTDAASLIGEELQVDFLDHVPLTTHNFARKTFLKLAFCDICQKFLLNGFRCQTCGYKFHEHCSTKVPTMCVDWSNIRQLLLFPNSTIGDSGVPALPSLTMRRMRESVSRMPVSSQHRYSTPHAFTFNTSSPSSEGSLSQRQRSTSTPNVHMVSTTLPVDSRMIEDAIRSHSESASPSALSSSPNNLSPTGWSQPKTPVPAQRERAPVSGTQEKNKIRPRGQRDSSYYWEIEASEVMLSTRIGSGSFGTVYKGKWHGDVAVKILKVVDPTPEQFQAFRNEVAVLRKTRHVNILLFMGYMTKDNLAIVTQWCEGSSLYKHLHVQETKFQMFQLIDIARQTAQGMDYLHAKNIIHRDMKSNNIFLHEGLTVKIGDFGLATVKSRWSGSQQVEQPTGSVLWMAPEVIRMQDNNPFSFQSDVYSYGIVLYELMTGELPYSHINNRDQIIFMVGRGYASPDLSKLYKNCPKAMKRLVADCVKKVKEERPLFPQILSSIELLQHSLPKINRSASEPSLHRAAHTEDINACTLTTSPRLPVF

Sequence of Leukocyte tyrosine kinase receptor (Homo sapiens) (P29376 whole entry): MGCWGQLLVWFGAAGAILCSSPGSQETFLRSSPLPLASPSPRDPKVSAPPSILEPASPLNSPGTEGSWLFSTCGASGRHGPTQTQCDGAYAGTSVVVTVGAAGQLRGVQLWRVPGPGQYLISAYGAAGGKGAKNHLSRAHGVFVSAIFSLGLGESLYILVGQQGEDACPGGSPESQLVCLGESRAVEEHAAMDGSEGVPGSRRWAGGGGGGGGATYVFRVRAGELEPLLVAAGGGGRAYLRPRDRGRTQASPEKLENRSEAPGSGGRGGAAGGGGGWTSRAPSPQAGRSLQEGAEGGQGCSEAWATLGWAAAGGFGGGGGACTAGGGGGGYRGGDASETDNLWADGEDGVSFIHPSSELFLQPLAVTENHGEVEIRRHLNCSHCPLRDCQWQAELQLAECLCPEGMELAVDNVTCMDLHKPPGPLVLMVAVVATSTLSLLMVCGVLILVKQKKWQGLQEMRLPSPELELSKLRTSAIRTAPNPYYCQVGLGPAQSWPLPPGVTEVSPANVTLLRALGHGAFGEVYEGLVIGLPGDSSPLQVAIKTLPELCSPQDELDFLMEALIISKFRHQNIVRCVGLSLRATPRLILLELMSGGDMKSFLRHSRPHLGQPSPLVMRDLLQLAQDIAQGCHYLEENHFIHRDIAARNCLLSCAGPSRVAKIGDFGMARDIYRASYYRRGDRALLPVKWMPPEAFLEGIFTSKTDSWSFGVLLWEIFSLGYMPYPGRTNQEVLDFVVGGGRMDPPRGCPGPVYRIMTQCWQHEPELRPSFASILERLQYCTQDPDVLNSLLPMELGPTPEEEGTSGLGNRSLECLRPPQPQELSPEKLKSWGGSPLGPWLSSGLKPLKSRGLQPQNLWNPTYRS

Row | Structure (SMILES) | residual activity [1] [%] | residual activity [2] [%] | residual activity [3] [%] | inhibition [4] [%] | residual activity [5] [%] | residual activity [6] [%] | residual activity [7] [%] | residual activity [8] [%] | residual activity [9] [%] | residual activity [10] [%] | residual activity [11] [%] | inhibition [12] [%] | residual activity [13] [%]
1 | CC1=C(C#N)C(c2ccc3c(c2)c(NC(=O)c2ccccc2C)nn3C)C(C#N)=C(C)N1 [BAY-974] | 70 | 86 | 89 | 6.72 | 99 | 100 | 94 | 100 | 87 | 95 | 69 | 2.21 | 100
2 | CCc1ccccc1C(=O)Nc1n[nH]c2c(C)c(F)c(C3C(C#N)=C(C)N(C)C(C)=C3C#N)cc12 [BAY-3827] | 94 | 76 | 89 | 13.9 | 100 | 90 | 95 | 100 | 100 | 94 | 43 | 9.23 | 63
